Key:
giant foxtail = assay: Test A preemergence; format: in vivo, Setaria faberii; settings: Setaria faberi, pre-emergence, 240 h, read-out: Foxtail, Giant plant response rating
Method in brief: (§1)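 Pre- and postemergence greenhouse screen. Soil: loam + sand. Spray carrier: solvent mixture, non-phytotoxic, with surfactant. Post timing at 1–2 leaves, height 2–10 cm. Readout: visual injury on a 0–100 scale roughly 10 days after application, untreated plants as reference.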

velvetleaf [1] = assay: Test A preemergence; format: in vivo, Abutilon theophrasti; settings: Abutilon theophrasti, pre-emergence, 240 h, read-out: Velvetleaf plant response rating
Method in brief: as §1

corn = assay: Test A postemergence; format: in vivo, Zea mays; settings: Zea mays, post-emergence, 240 h
Method in brief: as §1

morningglory [2] = assay: Test A postemergence; format: in vivo, Ipomoea spp.; settings: Ipomoea, post-emergence, 240 h
Method in brief: as §1

wheat = assay: Test A preemergence; format: in vivo, Triticum aestivum; settings: Triticum aestivum, pre-emergence, 240 h, read-out: Wheat plant response rating
Method in brief: as §1

morningglory [3] = assay: Test A preemergence; format: in vivo, Ipomoea spp.; settings: Ipomoea, pre-emergence, 240 h, read-out: Morningglory plant response rating
Method in brief: as §1

galium = assay: Test C postemergence; format: in vivo, Galium aparine; settings: Galium, post-emergence
Source text: (§2) Seeds of plant species selected from blackgrass (Alopecurus myosuroides), Italian ryegrass (Lolium multiflorum), wheat, winter (winter wheat, Triticum aestivum), galium (catchweed bedstraw, Galium aparine), corn (Zea mays), large (Lg) crabgrass (Digitaria sanguinalis), giant foxtail (Setaria faberii), johnsongrass (Sorghum halepense), lambsquarters (Chenopodium album), morningglory (Ipomoea coccinea), yellow nutsedge (Cyperus esculentus), pigweed (Amaranthus retroflexus), ragweed (common ragweed, Ambrosia elatior), soybean (Glycine max), barnyardgrass (Echinochloa crus-galli), oilseed rape (Brassica napus), waterhemp (common waterhemp, Amaranthus rudis), kochia (Kochia scoparia), wild oat (Avena fatua), surinam grass (Brachiaria decumbens), foxtail, green (green foxtail, Setaria viridis), goosegrass (Eleusine indica), bromegrass, downy (downy bromegrass, Bromus tectorum), nightshade (eastern black nightshade, Solanum ptycanthum), cocklebur (common cocklebur, Xanthium strumarium), cupgrass, woolly (woolly cupgrass, Eriochloa villosa), bermudagrass (Cynodon dactylon), sunflower, (common oilseed sunflower, Helianthus annuus), Russian thistle (Salsola kali), and velvetleaf (Abutilon theophrasti) were planted into a blend of loam soil and sand and treated preemergence with test chemicals formulated in a non-phytotoxic solvent mixture which included a surfactant.
(§3) At the same time, plants selected from these crop and weed species and also barley, winter (winter barley, Hordeum vulgare), windgrass (Apera spica-venti), chickweed (common chickweed, Stellaria media), deadnettle (henbit deadnettle, Lamium amplexicaule), and canarygrass (littleseed canarygrass, Phalaris minor) were planted in pots containing Redi-Earth® planting medium (Scotts Company, 14111 Scottslawn Road, Marysville, Ohio 43041) comprising spaghnum peat moss, vermiculite, wetting agent and starter nutrients and treated with postemergence applications of test chemicals formulated in the same manner. Plants ranged in height from 2 to 18 cm (1- to 4-leaf stage) for postemergence treatments. Treated plants and controls were maintained in a greenhouse for 13 to 15 days, after which time all species were compared to controls and visually evaluated. Plant response ratings, summarized in Table C, are based on a scale of 0 to 100 where 0 is no effect and 100 is complete control. A dash (-) response means no test result.

soybean = assay: Test C postemergence; format: in vivo, Glycine max; settings: Glycine max, post-emergence
Method in brief: (§4)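 Whole-plant greenhouse test with surfactant-containing solvent formulation, applied preemergence to sown loam–sand pots or postemergence to 2–18 cm plants. Scored by eye 13 to 15 days on, 0–100 scale.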

johnsongrass = assay: Test C postemergence; format: in vivo, Sorghum halepense; settings: Sorghum halepense, post-emergence
Source text: as §2, §3

ragweed = assay: Test C postemergence; format: in vivo, Ambrosia elatior; settings: Ambrosia artemisiifolia, post-emergence
Source text: as §2, §3

wheat, winter = assay: Test C postemergence; format: in vivo, Triticum aestivum; settings: Triticum aestivum, post-emergence
Method in brief: as §4

pigweed = assay: Test C postemergence; format: in vivo, Amaranthus retroflexus; settings: Amaranthus retroflexus, post-emergence
Source text: as §2, §3

velvetleaf [4] = assay: Test C postemergence; format: in vivo, Abutilon theophrasti; settings: Abutilon theophrasti, post-emergence
Source text: as §2, §3

velvetleaf [5] = assay: Test A postemergence; format: in vivo, Abutilon theophrasti; settings: Abutilon theophrasti, post-emergence, 240 h
Method in brief: as §1

kochia = assay: Test C postemergence; format: in vivo, Kochia scoparia; settings: Bassia scoparia, post-emergence
Method in brief: as §4

blackgrass = assay: Test C postemergence; format: in vivo, Alopecurus myosuroides; settings: Alopecurus myosuroides, post-emergence
Source text: as §2, §3

[6] = 125 g ai/ha, 0 to 100 scale where 0 is no effect and 100 is complete control
[7] = 500 g ai/ha, 0 to 100 scale, 0 no effect, 100 complete control, approx. 10 days

## Clc1cnn(-c2ccccc2Oc2ncc(Br)cn2)c1 [Compound 5, 5-bromo-2-[2-(4-chloro-1H-pyrazol-1-yl)phenoxy]pyrimidine]
Giant foxtail; [6]
  pest or weed control at 125 g/ha: 90%
Giant foxtail; [7]
  pest or weed control at 500 g/ha: 100%
Velvetleaf [1]; [6]
  pest or weed control at 125 g/ha: 90%
Velvetleaf [1]; [7]
  pest or weed control at 500 g/ha: 100%
corn; [6]
  Corn plant response rating (crop injury, 0 = no effect, 100 = complete kill) at 125 g/ha: 0%
corn; 500 g ai/ha, 0 to 100 scale, 0 no effect, 100 complete control, read-out: Plant response rating Corn
  plant injury at 500 g/ha: 30%
Morningglory [2]; 125 g ai/ha, 0 to 100 scale where 0 is no effect and 100 is complete control, read-out: Plant response rating, Morningglory
  pest or weed control at 125 g/ha: 80%
Morningglory [2]; 500 g ai/ha, 0 to 100 scale, 0 no effect, 100 complete control, read-out: Plant response rating Morningglory
  pest or weed control at 500 g/ha: 90%
wheat; [6]
  plant injury at 125 g/ha: 0%
wheat; [7]
  plant injury at 500 g/ha: 20%
Morningglory [3]; [6]
  pest or weed control at 125 g/ha: 0%
Morningglory [3]; [7]
  pest or weed control at 500 g/ha: 20%
galium; 125 g ai/ha, postemergence, read-out: Plant response rating (0 to 100), Galium
  pest or weed control at 125 g/ha: 80%
galium; 250 g ai/ha, postemergence, read-out: Plant response rating (0 to 100), Galium
  pest or weed control at 250 g/ha: 95%
galium; Postemergence, 31 g ai/ha, scale 0 to 100 (0 no effect, 100 complete control), 13 to 15 days, read-out: Plant response rating, Galium
  pest or weed control at 31 g/ha: 55%
galium; Postemergence, 62 g ai/ha, scale 0 to 100 (0 no effect, 100 complete control), read-out: Plant response rating, Galium
  pest or weed control at 62 g/ha: 70%
soybean; 125 g ai/ha, postemergence, read-out: Plant response rating (0 to 100), Soybean
  Soybean plant response rating (crop injury, 0-100 scale) at 125 g/ha: 95%
soybean; 250 g ai/ha, postemergence
  Soybean plant response rating (crop injury, 0-100 scale) at 250 g/ha: 95%
soybean; Postemergence, 31 g ai/ha, scale 0 to 100 (0 no effect, 100 complete control), 13 to 15 days
  Soybean plant response rating (crop injury, 0-100 scale) at 31 g/ha: 55%
soybean; Postemergence, 62 g ai/ha, scale 0 to 100 (0 no effect, 100 complete control)
  Soybean plant response rating (crop injury, 0-100 scale) at 62 g/ha: 90%
johnsongrass; 125 g ai/ha, postemergence, read-out: Plant response rating (0 to 100), Johnsongrass
  pest or weed control at 125 g/ha: 5%
johnsongrass; 250 g ai/ha, postemergence, read-out: Plant response rating (0 to 100), Johnsongrass
  pest or weed control at 250 g/ha: 10%
johnsongrass; Postemergence, 31 g ai/ha, scale 0 to 100 (0 no effect, 100 complete control), 13 to 15 days, read-out: Plant response rating, Johnsongrass
  pest or weed control at 31 g/ha: 5%
johnsongrass; Postemergence, 62 g ai/ha, scale 0 to 100 (0 no effect, 100 complete control), read-out: Plant response rating, Johnsongrass
  pest or weed control at 62 g/ha: 5%
ragweed; 125 g ai/ha, postemergence, read-out: Plant response rating (0 to 100), Ragweed
  pest or weed control at 125 g/ha: 55%
ragweed; 250 g ai/ha, postemergence, read-out: Plant response rating (0 to 100), Ragweed
  pest or weed control at 250 g/ha: 85%
ragweed; Postemergence, 31 g ai/ha, scale 0 to 100 (0 no effect, 100 complete control), 13 to 15 days, read-out: Plant response rating, Ragweed
  pest or weed control at 31 g/ha: 15%
ragweed; Postemergence, 62 g ai/ha, scale 0 to 100 (0 no effect, 100 complete control), read-out: Plant response rating, Ragweed
  pest or weed control at 62 g/ha: 45%
wheat, winter; 125 g ai/ha, postemergence, read-out: Plant response rating (0 to 100), Wheat
  plant injury at 125 g/ha: 10%
wheat, winter; 250 g ai/ha, postemergence, read-out: Plant response rating (0 to 100), Wheat
  plant injury at 250 g/ha: 40%
wheat, winter; Postemergence, 31 g ai/ha, scale 0 to 100 (0 no effect, 100 complete control), 13 to 15 days, read-out: Plant response rating, Wheat
  plant injury at 31 g/ha: 0%
wheat, winter; Postemergence, 62 g ai/ha, scale 0 to 100 (0 no effect, 100 complete control), read-out: Plant response rating, Wheat
  plant injury at 62 g/ha: 5%
pigweed; 125 g ai/ha, postemergence, read-out: Plant response rating (0 to 100), Pigweed
  pest or weed control at 125 g/ha: 100%
pigweed; 250 g ai/ha, postemergence, read-out: Plant response rating (0 to 100), Pigweed
  pest or weed control at 250 g/ha: 100%
pigweed; Postemergence, 31 g ai/ha, scale 0 to 100 (0 no effect, 100 complete control), 13 to 15 days, read-out: Plant response rating, Pigweed
  pest or weed control at 31 g/ha: 98%
pigweed; Postemergence, 62 g ai/ha, scale 0 to 100 (0 no effect, 100 complete control), read-out: Plant response rating, Pigweed
  pest or weed control at 62 g/ha: 98%
Velvetleaf [4]; 125 g ai/ha, postemergence, read-out: Plant response rating (0 to 100), Velvetleaf
  pest or weed control at 125 g/ha: 80%
Velvetleaf [4]; 250 g ai/ha, postemergence, read-out: Plant response rating (0 to 100), Velvetleaf
  pest or weed control at 250 g/ha: 98%
Velvetleaf [4]; Postemergence, 31 g ai/ha, scale 0 to 100 (0 no effect, 100 complete control), 13 to 15 days, read-out: Plant response rating, Velvetleaf
  pest or weed control at 31 g/ha: 45%
Velvetleaf [4]; Postemergence, 62 g ai/ha, scale 0 to 100 (0 no effect, 100 complete control), read-out: Plant response rating, Velvetleaf
  pest or weed control at 62 g/ha: 55%
Velvetleaf [5]; 125 g ai/ha, 0 to 100 scale where 0 is no effect and 100 is complete control, read-out: Plant response rating, Velvetleaf
  pest or weed control at 125 g/ha: 100%
Velvetleaf [5]; 500 g ai/ha, 0 to 100 scale, 0 no effect, 100 complete control, read-out: Plant response rating Velvetleaf
  pest or weed control at 500 g/ha: 100%
kochia; 125 g ai/ha, postemergence, read-out: Plant response rating (0 to 100), Kochia
  pest or weed control at 125 g/ha: 70%
kochia; 250 g ai/ha, postemergence, read-out: Plant response rating (0 to 100), Kochia
  pest or weed control at 250 g/ha: 100%
kochia; Postemergence, 31 g ai/ha, scale 0 to 100 (0 no effect, 100 complete control), 13 to 15 days, read-out: Plant response rating, Kochia
  pest or weed control at 31 g/ha: 20%
kochia; Postemergence, 62 g ai/ha, scale 0 to 100 (0 no effect, 100 complete control), read-out: Plant response rating, Kochia
  pest or weed control at 62 g/ha: 55%
blackgrass; 125 g ai/ha, postemergence, read-out: Plant response rating (0 to 100), Blackgrass
  pest or weed control at 125 g/ha: 20%
blackgrass; 250 g ai/ha, postemergence, read-out: Plant response rating (0 to 100), Blackgrass
  pest or weed control at 250 g/ha: 45%
blackgrass; Postemergence, 31 g ai/ha, scale 0 to 100 (0 no effect, 100 complete control), 13 to 15 days, read-out: Plant response rating, Blackgrass
  pest or weed control at 31 g/ha: 0%
blackgrass; Postemergence, 62 g ai/ha, scale 0 to 100 (0 no effect, 100 complete control), read-out: Plant response rating, Blackgrass
  pest or weed control at 62 g/ha: 5%

Reference: patent publication US9695155B2, “Herbicidal substituted pyrimidinyloxy benzene compounds” (E. I. DU PONT DE NEMOURS AND COMPANY, priority 2013, dated 2017)
